Measurements taken from patent publication US20130078298A1, “GASEOUS NITRIC OXIDE-SEQUESTERING PRODUCTS AND PROCESSES OF PREPARING SAME” (Enox Biopharma, Inc, priority 2010, published 2013).

Legend:
E. coli [1] = assay: Biofilm sterilization by gaseous NO; type: cell-based, Escherichia coli; details: 20,000 ppm NO, 1 liter/minute, 5, 10, 30, 60 or 120 minutes
Method: (§1) A biofilm was established in each well of a 6-well plate and the time of treatment with nitric oxide gas for eradication of the biofilm was tested using the biofilm formation assay described hereinabove.
(§2) Briefly, 3 ml of LB media were placed in each well of 12 6-well plates and then each well was inoculated with 10 μl of stock bacteria (E. Coli or A. baumanii (6 plates for each bacterial type). Plates were incubated with agitation for 5 days at 37° C. to establish a biofilm in each well. The media was removed and each well washed twice with sterile saline.
(§3) Plates with established biofilms (one for each bacterial type) were treated with nitric oxide (20,000 ppm, 1 liter/minute flow rate) for 5, 10, 30, 60 or 120 minutes. Control plates were kept at room temperature, without treatment.
(§4) Three of the six wells for each plate were stained with crystal violet to confirm biofilm formation. The biofilm in the remaining 3 wells of each plate was re-suspended (with 30 seconds sonication) in 5 ml sterile saline. Aliquots of 1, 10 and 100 μl of each sample were plated in compartmentalized (3-section) petri plates.

E. coli [2] = assay: Sterilization of E. coli-inoculated catheter sections by nitric oxide dosing (CFU count); type: cell-based, Escherichia coli; details: 20,000 ppm NO, 30 cc/minutes
Method: Six-mm diameter Folysil® silicone Foley catheters, (catalog no. AA6118; Coloplast® Corp. Minneapolis, Minn., USA) (Folysil® and Coloplast® are registered trademarks of Coloplast A/S, Humlebaek, Denmark) were aseptically cut into 2-cm sections and inoculated by immersion in 2 ml of one of 10^3 CFU/ml, 10^5CFU/ml, or 10^8 CFU/ml E. coli. inocula for 30 minutes. Inoculated catheter sections were subsequently dosed with 20,000 parts per million of nitric oxide (at a flow rate of 30 cc/minutes) during 1, 5, 15, 30, 60 or 120 minutes, using the general procedure I described hereinabove. Control catheter sections were not impregnated with nitric oxide, but were stored in sterile sealed vials.
The nitric oxide-treated and untreated catheter segments were then immersed separately in 2 ml media and then incubated for 8 hours at 37° C. Aliquots of the incubation media were plated and numbers of CFU counted. Bacterial loads were calculated as CFU per ml.
Foley catheters, (catalog no. AA6118; Coloplast® Corp. Minneapolis, Minn., USA) is aseptically cut into 2-cm sections and inoculated by immersion in 2 ml of one of 10^3 CFU/ml, 10^5 CFU/ml, or 10^8 CFU/ml E. coli. inocula for 30 minutes. Inoculated catheter sections are subsequently dosed with nitric oxide using the general procedure II described hereinabove. Control catheter sections are not impregnated with nitric oxide, but are stored in sterile sealed vials.
The nitric oxide-treated and untreated catheter segments are then immersed separately in 2 ml media and incubated for 8 hours at 37° C. Aliquots of the incubation media are plated and numbers of CFU counted. Bacterial loads are calculated as CFU per ml.

A. baumanii = assay: Biofilm sterilization by gaseous NO; type: cell-based, Acinetobacter baumanii; details: 20,000 ppm NO, 1 liter/minute, 5, 10, 30, 60 or 120 minutes
Method: as §1, §2, §3, §4

Pseudomonas aeruginosa = details: multiple 30 minute treatments of 160 ppm nitric oxide; cited from earlier work
E. coli [3] = details: multiple 30 minute treatments of 160 ppm nitric oxide; cited from earlier work
Staphylococcus aureus = details: multiple 30 minute treatments of 160 ppm nitric oxide; cited from earlier work
Bacterial vaginosis (BV) = details: following metronidazole treatment of BV; cited from earlier work

| Compound | colonies from re-suspended established biofilm (E. coli [1]) | treatment time after which the catheter segments were sterilized (E. coli [2]; 10^3 bacterial stock) [min] | treatment time after which the catheter segments were sterilized (E. coli [2]; 10^5 bacterial stock) [min] | treatment time after which the catheter segments were sterilized (E. coli [2]; 10^8 bacterial stock) [min] | colonies from re-suspended established biofilm (A. baumanii) | decrease in the bacterial load (Pseudomonas aeruginosa) | decrease in the bacterial load (E. coli [3]) | decrease in the bacterial load (Staphylococcus aureus) | cure rate (Bacterial vaginosis (BV)) [%] |
| --- | --- | --- | --- | --- | --- | --- | --- | --- | --- |
| [N]=O [nitric oxide] | no colonies were observed | 1 | 15 | 15 | no colonies were observed | > 5 log 10 colony forming unit per milliliter (CFU/ml) | > 5 log 10 colony forming unit per milliliter (CFU/ml) | > 5 log 10 colony forming unit per milliliter (CFU/ml) | – |
| Cc1ncc([N+](=O)[O-])n1CCO [metronidazole] | – | – | – | – | – | – | – | – | 61 |
